This note sets out measurements from article PMC10553830, “Functional and structural analyses reveal that a dual domain sialidase protects bacteria from complement killing through desialylation of complement factors” (PLOS Pathogens, 2023).

Broadly, the Km is the concentration of substrate that gives half-maximal velocity.

The target of series [1] is T1, PG0352 (Porphyromonas gingivalis, UniProt Q7MX62).
T1 construct: gene PG_0352; N-terminal His6, residues 31-526 (CBM 31-176 plus sialidase domain 177-523), signal peptide removed, codon-optimized, pQE80L, E. coli BL21-Star (DE3); monomer, ~52 kDa by SEC
Nature of the series: X-ray crystal structure, […] Å (soaked). It counts as binding. The note with it: 10 mM soak, 20 min; sialidase active site; sialidase inhibitor.

Series [2] concerns the target T1, PG0352. Nature of the series: X-ray crystal structure, […] Å (soaked). The series is classed as binding. The note with it: 27 mM soak, 60 min; sialidase active site; alpha anomer.
Series [3] has as its target T1, PG0352. Nature of the series: X-ray crystal structure, […] Å (co-crystallized). It counts as binding. The note with it: 5 mM ligand; bound in CBM cleft, not the active site.
The subject of series [4] is CC(=O)N[C@H]1[C@H]([C@H](O)[C@H](O)CO)O[C@@](Oc2ccc3c(C)cc(=O)oc3c2)(C(=O)O)C[C@@H]1O. Nature of the series: purified protein. The note with it: 10 mM sodium citrate, pH 5.0, 37 °C, 1 min, 5 nM enzyme.
In series [5] the test system is Cc1cc(=O)oc2cc(O[C@@]3(C(=O)O)C[C@H](O)[C@@H](NC(=O)CO)[C@H]([C@H](O)[C@H](O)CO)O3)ccc12. Nature of the series: purified protein. The note with it: 10 mM sodium citrate, pH 5.0, 37 °C, 1 min, 5 nM enzyme.

T1 sequence (Q7MX62 entry or part of it): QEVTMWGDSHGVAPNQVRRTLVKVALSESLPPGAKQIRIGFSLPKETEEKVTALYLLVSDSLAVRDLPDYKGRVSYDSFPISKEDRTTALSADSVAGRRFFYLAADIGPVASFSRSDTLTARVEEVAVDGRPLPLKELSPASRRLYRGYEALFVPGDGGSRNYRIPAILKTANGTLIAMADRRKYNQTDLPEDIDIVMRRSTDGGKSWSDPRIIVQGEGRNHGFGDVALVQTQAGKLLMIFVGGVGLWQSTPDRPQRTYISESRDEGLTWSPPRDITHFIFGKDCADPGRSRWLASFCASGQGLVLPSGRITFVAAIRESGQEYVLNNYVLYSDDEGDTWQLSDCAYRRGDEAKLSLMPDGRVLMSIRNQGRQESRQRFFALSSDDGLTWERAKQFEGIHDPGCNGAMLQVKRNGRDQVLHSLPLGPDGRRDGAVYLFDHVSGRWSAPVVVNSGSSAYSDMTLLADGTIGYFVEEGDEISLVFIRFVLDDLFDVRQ

Turning to `CC(=O)N[C@H]1[C@H]([C@H](O)[C@H](O)CO)OC(C(=O)O)=C[C@@H]1O` [DANA], the “X-ray crystal structure, 2.14 Å (soaked)” value in series [1] was “DANA binds within the sialidase active site in a similar conformation”.
On to `CC(=O)N[C@H]1[C@H]([C@H](O)[C@H](O)CO)OC(O)(C(=O)O)C[C@@H]1O` (some centres unmarked) [Neu5Ac], for which, in series [2], the “X-ray crystal structure, 1.93 Å (soaked)” value was “Clear electron density was visible for Neu5Ac bound in its alpha anomeric form”.
In the case of `OCC1(O)OC[C@@H](O)[C@@H](O)[C@@H]1O` (some centres unmarked) [fructose], the “X-ray crystal structure, 2.29 Å (co-crystallized)” value in series [3] is “we co-crystallized PG0352 with fructose and determined the structure of the complex”.
Regarding PG0352 (Porphyromonas gingivalis W83), the Michaelis constant (Km) in series [4] stood at 39.31 ± 6.540 µM; in series [5], 81.65 ± 20.56 µM.
